Experiments:
fertilization in vitro = settings: cited from earlier work
acrosin = settings: cited from earlier work
boar acrosin [1] = test: SDS-PAGE / Western blot analysis of AAT-acrosin reaction mixture; format: binding
Description: Lanes 1 and 6, proacrosin (^~ 5 ug) autoactivated to acrosin; Lanes 2 and 7, alpha-1-antrypsin (^~ 2 ug); Lanes 3 and 8, alpha-1-antitrypsin (~2 ug)+activated proacrosin (~5 ug) in 0.1M Tris, pH 8.0; Lanes 4 and 9, alpha-1-antitrypsin (^~ 2 ug)+activated proacrosin (^~ 5 ug) in 0.1M Tris, 0.05M CaCl2, pH 8.0; Lane 5, molecular weight markers.
(§1) The nature of the reaction between AAT and acrosin was examined by electrophoresis under reducing and denaturing conditions and by Western blot analysis. AAT (2 μg) and activated boar proacrosin (5 μg) were incubated in a buffer containing 0.1M Tris, pH 8.0. Acrosin activity was inhibited 48% in the BAEE assay. […] Thus, all inhibition is accounted for by the formation of a covalent complex.

boar acrosin [2] = settings: cited from earlier work
female mice = test: In vivo inhibition of fertilization, intravaginal cream in female mice; design: species or system mouse; settings: individual mice 1-5; cream 100 mg AAT/20 ml, 100 μl intravaginal prior to copulation; sacrificed 12 days after copulation
Description: For in vivo testing, a cream was prepared by dissolving 100 mg of recombinant AAT in 5 ml of phosphate-buffered saline (PBS; obtained from Sigma Chemical Co.). This solution was emulsified with 15 ml of K-Y Jelly (Johnson & Johnson) to give a final AAT concentration of 100 mg/20 ml.
The cream (100 μl) was administered intravaginal to female mice using an Eppendorf pipette prior to copulation. Control females were untreated or received a control cream consisting of 100 mg bovine serum albumin in 5 ml of PBS plus 15 ml of K-Y Jelly. Copulation was confirmed in two of five BSA controls and four of five experimental mice. Mice were sacrificed 12 days after copulation and the number of fetuses was noted. Results, shown in Table 1, indicate that alpha-1-antitrypsin is an effective contraceptive agent.

boar acrosin [3] = test: Spectrophotometric acrosin assay with substrate BAEE; format: biochemical
Description: The effects of alpha-1-antitrypsin on purified acrosin were measured spectrophotometrically using the acrosin substrate N-α-benzoyl-L-arginine ethyl ester (BAEE) essentially as described by Polakoski and Zaneveld (Methods in Enzymology 45 (part B): 325, 1976). Boar acrosin was combined with AAT in 0.025M Tris, pH 7.0, containing BAEE. A control sample lacked AAT. The absorbance of the reaction mixture was monitored at 253 nm.
as §1

human acrosin = settings: cited from earlier work
[4] = system: sperm and ova of hybrid mouse strain B6D2F1; test: In vitro fertilization assay with mouse sperm and oocytes; format: cell-based
Description: The ability of AAT to inhibit fertilization in vitro was tested using sperm and ova obtained from the hybrid mouse strain B6D2F1. This strain was chosen because a 75% to 85% in vitro fertilization rate is routine and the female mice respond well to superovulatory drugs, producing an average of 30 normal oocytes per animal.
Oocytes were collected from 3- to 4-week-old female B6D2F1 mice. The animals received 5 international units of pregnant mare's serum gonadotropin to initiate follicular growth. After 48 hours, 5 international units of human chorionic gonadotropin were given to effect ovulation. Twelve hours after the last injection, oviducts were removed and oocytes were collected by puncture of the ampullary region, allowing the release of cumulus enclosed oocytes (cumulus clots) into 0.2 ml Fraser's medium (Fraser and Drury, Biol. Reprod. 13: 513-518, 1975) under paraffin oil. To randomize oocyte distribution, all cumulus clots were collected into one dish of medium and then placed into the fertilization medium. Oocytes were collected, on average, 15 minutes before sperm addition.
Sperm were collected from the cauda epididymus of 9- to 14-week-old male B6D2F1 mice of proven fertility. Each epididymus contained approximately 40 million sperm with 70% to 80% motility. […]
After the one-hour capacitation period, the sperm were counted by hemocytometer and […] sperm cells/ml were added to 0.2 ml Fraser's, medium (free of alpha-1-antitrypsin or containing AAT at the above concentrations) containing cumulus cell-enclosed oocytes. […]
The above experiments were designed to analyze the effective inhibitory concentration of alpha-1-antitrypsin and to detect differences in fertilization rate resulting from the capacitation/acrosome reaction state of the sperm. […] Data are expressed as percent oocytes with two pronuclei and a second polar body. […]

Substance	effect on fertilization in vitro (fertilization in vitro)	effect on acrosin activity (acrosin)	complex formation between inhibitor and enzyme (Western blot) (boar acrosin [1]; AAT 2 μg + activated boar proacrosin 5 μg, 0.1M Tris, pH 8.0, reducing and denaturing 12% SDS-PAGE)	complex formation between inhibitor and enzyme (Western blot) (boar acrosin [1]; same analysis in the presence of 0.05M CaCl2)	inhibition of boar acrosin in vitro (boar acrosin [2])	Number of Fetuses (female mice)	Acrosin activity inhibited in the BAEE assay (boar acrosin [3]; AAT 2 μg + activated boar proacrosin 5 μg, 0.1M Tris, pH 8.0) [%]	inhibition of acrosin in the test system (BAEE hydrolysis, absorbance at 253 nm) (boar acrosin [3]; boar acrosin combined with AAT in 0.025M Tris, pH 7.0, containing BAEE, amount of AAT tested)	inhibition of human acrosin in vitro (human acrosin)	blocking of fertilization ([4]; AAT in both capacitation and fertilization media, all concentrations except 0.01 mM (0.05-1 mM), FIG. 4)	concentrations of AAT effective in blocking fertilization ([4]; capacitation in AAT-containing medium, fertilization in control medium, FIG. 3)	decrease of fertilization rate (percent oocytes with two pronuclei and a second polar body) ([4]; sperm capacitated in control medium, fertilization in AAT-containing medium, all concentrations tested (0.01-1 mM), control fertilization rate 77%, FIG. 2)
soybean trypsin inhibitor	prevent fertilization in vitro	block acrosin activity	–	–	–	–	–	–	–	–	–	–
alpha-1-antitrypsin [AAT]	–	–	formation of a high molecular weight complex	essentially identical results	inhibit	0	48	complete inhibition	inhibit	effective in blocking fertilization	greater than 0.2 mM	about 50%

Reference: patent US5545615A, “A method of inhibiting fertilization by alpha-1-antitrypsin or antithrombin III” (ZymoGenetics, Inc., priority 1994, dated 1996)
